Data from ChEMBL document CHEMBL5214990, “Novel Aryl Alkamidazole Derivatives as Multifunctional Antifungal Inhibitors: Design, Synthesis, and Biological Evaluation” (J Med Chem, 2022).
Values after ≈ are worked out from the molar mass of the structure shown. Active and inactive are the calls of the source. The rule behind the calls is not given here.

Assays:
Candida albicans [1] = experiment: Antifungal activity against Candida albicans ATCC SC5314 assessed as inhibition of fungal growth measured after 72 hrs by CLSI based liquid medium dilution method; assay type: functional
Cryptococcus neoformans = experiment: Antifungal activity against Cryptococcus neoformans assessed as inhibition of fungal growth measured after 72 hrs by CLSI based liquid medium dilution method; assay type: functional
Pichia kudriavzevii = experiment: Antifungal activity against Candida krusei ATCC 6258 assessed as inhibition of fungal growth measured after 72 hrs by CLSI based liquid medium dilution method; assay type: functional
Candida tropicalis = experiment: Antifungal activity against Candida tropicalis ATCC 1369 assessed as inhibition of fungal growth measured after 72 hrs by CLSI based liquid medium dilution method; assay type: functional
Aspergillus fumigatus = experiment: Antifungal activity against Aspergillus fumigatus KM8001 assessed as inhibition of fungal growth measured after 72 hrs by CLSI based liquid medium dilution method; assay type: functional
Candida albicans [2] = experiment: Antifungal activity against fluconazole-resistant Candida albicans 17# assessed as inhibition of fungal growth measured after 72 hrs by CLSI based liquid medium dilution method; assay type: functional
Candida albicans [3] = experiment: Antifungal activity against fluconazole-resistant Candida albicans CaR assessed as inhibition of fungal growth measured after 72 hrs by CLSI based liquid medium dilution method; assay type: functional
Candida albicans [4] = experiment: Antifungal activity against fluconazole-resistant Candida albicans 632 assessed as inhibition of fungal growth measured after 72 hrs by CLSI based liquid medium dilution method; assay type: functional
Candida albicans [5] = experiment: Antifungal activity against fluconazole-resistant Candida albicans 901 assessed as inhibition of fungal growth measured after 72 hrs by CLSI based liquid medium dilution method; assay type: functional
Candida albicans [6] = experiment: Antifungal activity against fluconazole-resistant Candida albicans 904 assessed as inhibition of fungal growth measured after 72 hrs by CLSI based liquid medium dilution method; assay type: functional
[7] = target: T1, Lanosterol 14-alpha demethylase (Candida albicans (strain SC5314 / ATCC MYA-2876) (Yeast), UniProt P10613); experiment: Inhibition of CYP51 in Candida albicans ATCC SC5314 assessed as reduction in substrate consumption using lanosterol as substrate preincubated for 30 mins followed by substrate addition and measured after 60 mins by HPLC analysis
T1 sequence (P10613 whole entry): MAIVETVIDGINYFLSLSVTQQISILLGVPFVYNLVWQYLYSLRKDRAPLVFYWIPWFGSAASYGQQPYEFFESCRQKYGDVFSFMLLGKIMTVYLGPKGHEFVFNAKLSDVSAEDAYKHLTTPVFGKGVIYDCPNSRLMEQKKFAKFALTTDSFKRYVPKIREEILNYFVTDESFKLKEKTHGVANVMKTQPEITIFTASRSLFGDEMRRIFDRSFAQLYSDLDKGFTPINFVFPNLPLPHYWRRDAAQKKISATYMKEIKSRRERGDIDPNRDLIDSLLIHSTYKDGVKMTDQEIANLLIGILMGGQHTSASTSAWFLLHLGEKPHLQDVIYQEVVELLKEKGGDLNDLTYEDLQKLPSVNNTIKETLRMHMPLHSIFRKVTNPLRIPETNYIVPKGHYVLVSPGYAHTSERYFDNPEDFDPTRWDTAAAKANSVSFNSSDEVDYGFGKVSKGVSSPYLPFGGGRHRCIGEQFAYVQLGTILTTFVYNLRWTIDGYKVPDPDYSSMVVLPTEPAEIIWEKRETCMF

[8] = target: T2, Prostaglandin G/H synthase 2 (Homo sapiens, UniProt P35354); experiment: Inhibition of COX2 (unknown origin) assessed as reduction in PGF2alpha content using arachidonic acid as substrate preincubated for 10 mins followed by substrate addition and measured after 2 mins by enzyme immunoassay
T2 sequence (P35354 whole entry): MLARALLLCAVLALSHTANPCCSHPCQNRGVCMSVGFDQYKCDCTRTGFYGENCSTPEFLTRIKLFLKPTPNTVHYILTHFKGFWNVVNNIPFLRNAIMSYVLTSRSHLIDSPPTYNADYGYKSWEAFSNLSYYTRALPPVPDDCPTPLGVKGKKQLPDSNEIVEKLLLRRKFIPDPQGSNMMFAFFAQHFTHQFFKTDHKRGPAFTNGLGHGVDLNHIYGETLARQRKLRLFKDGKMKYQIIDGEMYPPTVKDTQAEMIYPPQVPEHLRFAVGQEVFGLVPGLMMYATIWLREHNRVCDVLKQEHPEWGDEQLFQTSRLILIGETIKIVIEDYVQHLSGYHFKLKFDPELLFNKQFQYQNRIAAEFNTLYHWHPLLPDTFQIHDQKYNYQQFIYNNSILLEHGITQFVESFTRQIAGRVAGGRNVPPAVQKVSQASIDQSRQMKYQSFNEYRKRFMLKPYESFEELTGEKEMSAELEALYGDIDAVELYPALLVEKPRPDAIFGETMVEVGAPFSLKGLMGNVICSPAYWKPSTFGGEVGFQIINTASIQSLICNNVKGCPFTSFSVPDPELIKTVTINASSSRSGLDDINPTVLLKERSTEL

[9] = Drug uptake in Candida albicans ATCC SC5314 assessed as increase in red and green fluorescence intensity measured after 10 hrs by PI/Hoechst […] staining based fluorescence microscopy; assay type: ADME
Candida albicans [10] = experiment: Antifungal activity against Candida albicans assessed as inhibition of fungal cell proliferation by measuring decrease in fungal cell density measured after 24 hrs; assay type: functional, organism-based
[11] = Increase in intracellular ROS level in Candida albicans assessed as fold increase in fluorescence intensity measured after 12 hrs by fluorescence microscopic analysis relative to control; assay type: functional
[12] = Increase in intracellular ROS level in Cryptococcus neoformans assessed as fold increase in fluorescence intensity measured after 12 hrs by fluorescence microscopic analysis relative to control; assay type: functional
Candida albicans [13] = experiment: Induction of mitochondrial membrane depolarization in Candida albicans assessed as fungal cells with depolarized mitochondria measured after 24 hrs by JC-1 staining based flow cytometry (reference value: 3.22%); assay type: functional
Candida albicans [14] = experiment: Induction of mitochondrial membrane depolarization in Candida albicans assessed as fungal cells with intact mitochondria measured after 24 hrs by JC-1 staining based flow cytometry (reference value: 95.9%); assay type: functional
Candida albicans [15] = experiment: Induction of apoptosis in Candida albicans assessed as viable cells measured after 24 hrs by Annexin V-FITC/PI staining based flow cytometry (reference value: 95.7%); assay type: functional
Candida albicans [16] = experiment: Induction of apoptosis in Candida albicans assessed as early apoptotic cells measured after 24 hrs by Annexin V-FITC/PI staining based flow cytometry (reference value: 0.46%); assay type: functional
Candida albicans [17] = experiment: Induction of apoptosis in Candida albicans assessed as late apoptotic cells measured after 24 hrs by Annexin V-FITC/PI staining based flow cytometry (reference value: 0.44%); assay type: functional
Candida albicans [18] = experiment: Induction of apoptosis in Candida albicans assessed as necrotic cells measured after 24 hrs by Annexin V-FITC/PI staining based flow cytometry (reference value: 3.37%); assay type: functional
[19] = target: T1, Lanosterol 14-alpha demethylase; experiment: Inhibition of CYP51 in Candida albicans ATCC SC5314 assessed as ergosterol content at 4 ug/ml measured after 48 hrs by GC-MS analysis (reference value: 95.61%); set-up: scale not given: the % may be the effect or the level left; conditions: at 4 µg/mL
[20] = target: T1, Lanosterol 14-alpha demethylase; experiment: Inhibition of CYP51 in Candida albicans ATCC SC5314 assessed as lanosterol content at 4 ug/ml measured after 48 hrs by GC-MS analysis; set-up: scale not given: the % may be the effect or the level left; conditions: at 4 µg/mL
[21] = target: T1, Lanosterol 14-alpha demethylase; experiment: Inhibition of CYP51 in Candida albicans ATCC SC5314 assessed as eburicol content at 4 ug/ml measured after 48 hrs by GC-MS analysis (reference value: 1.84%); set-up: scale not given: the % may be the effect or the level left; conditions: at 4 µg/mL
[22] = target: T1, Lanosterol 14-alpha demethylase; experiment: Inhibition of CYP51 in Candida albicans ATCC SC5314 assessed as unknown sterol content at 4 ug/ml measured after 48 hrs by GC-MS analysis; set-up: scale not given: the % may be the effect or the level left; conditions: at 4 µg/mL

Compound: C[C@H](C(=O)OC(Cn1ccnc1)c1ccc(F)cc1)c1ccc(-c2ccccc2)c(F)c1 (stereo partly specified)
- MIC50 (Candida albicans [1]): 0.25 µg/mL (≈ 0.578 µM)
- MIC50 (Cryptococcus neoformans): 0.5 µg/mL (≈ 1.16 µM)
- MIC50 (Pichia kudriavzevii): 0.125 µg/mL (≈ 0.289 µM)
- MIC50 (Candida tropicalis): 0.25 µg/mL (≈ 0.578 µM)
- MIC50 (Aspergillus fumigatus): 2 µg/mL (≈ 4.62 µM)
- MIC50 (Candida albicans [2]): 4 µg/mL (≈ 9.25 µM)
- MIC50 (Candida albicans [3]): 2 µg/mL (≈ 4.62 µM)
- MIC50 (Candida albicans [4]): 4 µg/mL (≈ 9.25 µM)
- MIC50 (Candida albicans [5]): 2 µg/mL (≈ 4.62 µM)
- MIC50 (Candida albicans [6]): 2 µg/mL (≈ 4.62 µM)
- IC50 [7]: 350 nM
- IC50 [8]: 3760 nM
- Drug uptake [9]: Active
- Activity (Candida albicans [10]): Active
- fold change (FC) [11]: 4
- fold change (FC) [12]: 4
- Activity (Candida albicans [13]): 52.9%
- Activity (Candida albicans [14]): 46.6%
- Activity (Candida albicans [15]): 66.2%
- Activity (Candida albicans [16]): 0.086%
- Activity (Candida albicans [17]): 1.06%
- Activity (Candida albicans [18]): 32.7%
- Activity [19]: 21.84%
- Activity [20]: 33.52%
- Activity [21]: 39.58%
- Activity [22]: 5.06%
